Measurements taken from patent US20080269343A1, “GALENIC FORMULATIONS OF ORGANIC COMPOUNDS” (priority 2004, published 2008).
Like-named read-outs stand apart in the source and are kept apart here.

Assay: Single-dose 300 mg pharmacokinetic study in healthy and type 2 diabetic subjects (Example 4)
Format: in vivo, human
Details: single oral dose 300 mg; for AUC(0-t): read-out: AUC0-96
Experimental: An open label, non-randomized, single center, and parallel group single dose study in healthy and type 2 diabetic subjects was carried out. Two parallel groups, one group of 30 healthy, and one group of 30 type 2 diabetic patients, (age, weight and race matched) were enrolled, and all subjects completed the study in each group. Each subject participated in a 21-day screening period, a baseline period (Day −1), one day treatment period (Day 1) and a study completion evaluation 96 hours after the treatment.
Once eligibility had been confirmed each subject received a single oral dose of 300 mg of aliskiren (dosage form 3) on Day 1 with 96 hour sampling of pharmacokinetic (PK) parameters. Subjects were admitted to the study site at least 12 hours prior to the dosing and were confined to the clinic for at least 48 hours post-dose and were advised to come back for the rest of the PK samples collection. Subjects were to undergo a study completion evaluation on 96 hours post-dose prior to discharge from the study site.
Type 2 diabetic patients had been diagnosed with type 2 diabetes at least 1 year prior to screening, and were otherwise in good health. Healthy subjects were selected to match type 2 diabetes patients with regard to age (±5 yr) and weight (±10 kg).
Blood samples were collected to determine the pharmacokinetics following a single oral dose of 300 mg of aliskiren. Plasma concentrations of aliskiren were used to determine the pharmacokinetic parameters using non-compartmental methods, and the data are summarized in FIG. 4, and Tables 2 and 3.

[1] = Max, type 2 diabetic patients n = 30
[2] = Min, type 2 diabetic patients n = 30
[3] = human, plasma, po, 300 mg, Geometric Mean, healthy subjects n = 30
[4] = human, plasma, po, 300 mg, Geometric Mean, type 2 diabetic patients n = 30
[5] = human, plasma, po, 300 mg, Median, healthy subjects n = 30
[6] = human, plasma, po, 300 mg, Median, type 2 diabetic patients n = 30
[7] = human, plasma, po, 300 mg, arithmetic mean, healthy subjects n = 30
[8] = human, plasma, po, 300 mg, arithmetic mean, type 2 diabetic patients n = 30

AUC0-96 (Max, healthy subjects n = 30): 4546 ng·h/mL | AUC0-∞ (Max, healthy subjects n = 30): 5015 ng·h/mL | Cmax (Max, healthy subjects n = 30): 979 ng/mL | Tmax (Max, healthy subjects n = 30): 6.00 h | AUC0-96 [1]: 5662 ng·h/mL | AUC0-∞ [1]: 6171 ng·h/mL | Cmax [1]: 1580 ng/mL | AUC0-96 (Min, healthy subjects n = 30): 425 ng·h/mL | AUC0-∞ (Min, healthy subjects n = 30): 482 ng·h/mL | Cmax (Min, healthy subjects n = 30): 66 ng/mL | Tmax (Min, healthy subjects n = 30): 0.25 h | AUC0-96 [2]: 431 ng·h/mL | AUC0-∞ [2]: 465 ng·h/mL | Cmax [2]: 80 ng/mL | Tmax [2]: 0.25 h | AUC(0-inf) [3]: 1500 ng·h/mL | AUC(0-t) [3]: 1380 ng·h/mL | Cmax (human, plasma, po, 300 mg, Geometric Mean, healthy subjects n = 30, read-out: Cmax): 283 ng/mL | Tmax (human, plasma, po, 300 mg, Geometric Mean, healthy subjects n = 30, read-out: tmax): 1.32 h | AUC(0-inf) [4]: 1740 ng·h/mL | AUC(0-t) [4]: 1590 ng·h/mL | Cmax (human, plasma, po, 300 mg, Geometric Mean, type 2 diabetic patients n = 30, read-out: Cmax): 322 ng/mL | Tmax (human, plasma, po, 300 mg, Geometric Mean, type 2 diabetic patients n = 30, read-out: tmax): 1.22 h | AUC(0-inf) [5]: 1340 ng·h/mL | AUC(0-t) [5]: 1260 ng·h/mL | Cmax (human, plasma, po, 300 mg, Median, healthy subjects n = 30, read-out: Cmax): 278 ng/mL | Tmax (human, plasma, po, 300 mg, Median, healthy subjects n = 30, read-out: tmax): 1.25 h | AUC(0-inf) [6]: 1900 ng·h/mL | AUC(0-t) [6]: 1610 ng·h/mL | Cmax (human, plasma, po, 300 mg, Median, type 2 diabetic patients n = 30, read-out: Cmax): 328 ng/mL | Tmax (human, plasma, po, 300 mg, Median, type 2 diabetic patients n = 30, read-out: tmax): 1 h | AUC(0-inf) [7]: 1780 ng·h/mL | AUC(0-t) [7]: 1640 ng·h/mL | Cmax (human, plasma, po, 300 mg, arithmetic mean, healthy subjects n = 30, read-out: Cmax): 348 ng/mL | Tmax (human, plasma, po, 300 mg, arithmetic mean, healthy subjects n = 30, read-out: tmax): 1.97 h | AUC(0-inf) [8]: 2040 ng·h/mL | AUC(0-t) [8]: 1860 ng·h/mL | Cmax (human, plasma, po, 300 mg, arithmetic mean, type 2 diabetic patients n = 30, read-out: Cmax): 394 ng/mL | Tmax (human, plasma, po, 300 mg, arithmetic mean, type 2 diabetic patients n = 30, read-out: tmax): 1.62 h
SMILES: COCCCOc1cc(C[C@@H](C[C@H](N)[C@@H](O)C[C@H](C(=O)NCC(C)(C)C(N)=O)C(C)C)C(C)C)ccc1OC [aliskiren, 2(S),4(S),5(S),7(S)—N-(3-amino-2,2-dimethyl-3-oxopropyl)-2,7-di(1-methylethyl)-4-hydroxy-5-amino-8-[4-methoxy-3-(3-methoxy-propoxy)phenyl]-octanamide]
